Test results taken from PMC10931833, “Simultaneous Purification of Human Interferon Alpha-2b and Serum Albumin Using Bioprivileged Fluorinated Ionic Liquid-Based Aqueous Biphasic Systems” (International Journal of Molecular Sciences, 2024).
Read-outs that look alike come from different tables or passages of the source.

Assays:
IFN-α2b [1] = molecular target: T1, IFN-α2b (Homo sapiens, UniProt P01563); experiment: Far-UV CD secondary structure of IFN-α2b (CONTIN-LL deconvolution); type: physicochemical; details: 0.125 mg/mL IFN-α2b, 200 mM component, 25 °C
T1 construct: single non-glycosylated polypeptide chain with a molecular weight of 19 kDa, comprising 165 amino acids; purchased Millipore Sigma-Aldrich SRP4595-100UG; host or cells: E. coli
Text: Circular dichroism (CD) is widely used to study the secondary structures of proteins, peptides and nucleic acids, because it requires a low concentration sample, is a nondestructive method, allows studying a wide range of variables (temperature, pH, etc.), and provides information on the effect of added ligands on protein folding and interactions.
Circular dichroism (CD) spectra were collected in a 10 mm quartz cuvette and a Chirascan spectropolarimeter (Applied Photophysics, UK) at room temperature. All CD spectra were recorded in the far-UV range of 190 to 260 nm at scan rates of 50 nm/min, with 4 accumulations, and a response time of 3 s; CD spectra were collected. For each CD experiment, two distinct duplicates were acquired and combined. […] Spectral deconvolution was carried out with DichroWeb using the CONTIN-LL deconvolution algorithm with the SMP180 reference set.

IFN-α2b [2] = molecular target: T1, IFN-α2b; experiment: CD thermal unfolding (Tm) of IFN-α2b; type: physicochemical; details: 0.125 mg/ml IFN-α2b, 200 mM component aqueous solution
Protocol: The same analyses attained for 208 nm and 192 nm are illustrated in Figures S5 and S6 in the Supplementary Materials. The corresponding T m values are estimated by fitting to a sigmoid with four parameters (one-way ANOVA, significance level of 0.05) and summarized in Table S2 in the Supplementary Materials. The CD T m of 0.125 mg/mL native IFN- α 2b is in good agreement with what was previously reported. […] The estimated T m values are summarized in Table S2 in the Supplementary Materials. The same analysis is attained for 208 nm and 192 nm, as depicted in Figures S5 and S6 in the Supplementary Materials. All the CD T m results are summarized in Table S2 in the Supplementary Materials. The thermal stability assessed by far-UV CD is solely determined through the thermal decay of the alpha-helical structure.
The same analysis was attained for 208 nm and 192 nm as illustrated in Figure S13 in the Supplementary Materials. The corresponding T m values are depicted in Table 5, and were estimated by fitting a sigmoid with four parameters (one-way ANOVA, with a significance level of 0.05).

[3] = design: method as in earlier work; details: aqueous solution at 25 °C, ref 3 (supplement; main text ref 71), cited from earlier work; for 1st CAC / 2nd CAC / 3rd CAC: ITC ([C2C1Im][C4F9SO3]) or conductometry ([N1112(OH)][C4F9SO3])
FITC-IFN-α2b = molecular target: T2, FITC-IFN-α2b (Homo sapiens, UniProt P01563); experiment: MST binding to FITC-IFN-α2b
T2 construct: single non-glycosylated polypeptide chain with a molecular weight of 19 kDa, comprising 165 amino acids; purchased Millipore Sigma-Aldrich SRP4595-100UG; host or cells: E. coli
Protocol: Typically, in the labeling process, one amine per protein is labeled, statistically distributing the position of the dye. Consequently, the risk of the label impairing the binding is minimal, given the typical number of lysine residues in proteins. […] The MST assay was performed as detailed in Section 3. […] For IFN- α 2b a concentration of 2.7 μ M was also prepared to compare it with previous results on MST-binding between FILs and IFN- α 2b fluorescently labeled with a different tag. In each run of MST, a maximum concentration of a ligand is selected and consecutively diluted in sixteen capillaries. […] The experimental conditions of the MST assay only allow the study of the aggregation phenomenon individually for the first CAC. For the MST runs with the concentration of the first capillary above the second CAC, the determined K d values for the runs that yield binding are influenced by several aggregates, making it impossible to attribute the K d value to a specific CAC. However, K d comprises the influence of the distinct aggregates of the FIL on binding affinity with both proteins, allowing a qualitative analysis of the impact of the different aggregates on binding affinity.
(§1) Microscale thermophoresis (MST) measurements of the dye-labeled protein were used to conduct binding investigations. […] MST tests were conducted in a monolith NT.115 (blue/red) in accordance with the NanoTemper Technologies methodology. Medium MST power and 20% LED power (nano-blue) were set as the instrument’s default settings. For every MST measurement, a PBS buffer was used. The concentration of FITC-BSA was fixed at 0.4 μ M and FITC-IFN- α 2b was tested under two different concentrations (of 0.4 and 2.7 μ M). The ligand was used to create a set of 16 1:1 dilutions, with the starting ligand concentrations ranging from 10 to 400 mM. The typical parameters for MST traces were used for recording: […], 30 s MST power on, and 5 s MST power off. The data from three independently conducted pipetted experiments were examined using NanoTemper Technologies’ MO.Affinity Analysis software, version 2.3.

FITC-BSA = molecular target: T3, FITC-BSA (Bos taurus, UniProt P02769); experiment: MST binding to FITC-BSA; design: species or system bovine; details: 0.41 μM BSA
T3 construct: purchased Millipore Sigma-Aldrich
Protocol: Herein, a commercial FITC labeling kit (Section 3) was used to fluorescently tag both IFN- α 2b and BSA. Typically, in the labeling process, one amine per protein is labeled, statistically distributing the position of the dye. […] The MST assay was performed as detailed in Section 3. The solutions were prepared with a concentration of IFN- α 2b and BSA fixed at 0.41 μ M in water. For IFN- α 2b a concentration of 2.7 μ M was also prepared to compare it with previous results on MST-binding between FILs and IFN- α 2b fluorescently labeled with a different tag. In each run of MST, a maximum concentration of a ligand is selected and consecutively diluted in sixteen capillaries. […] The experimental conditions of the MST assay only allow the study of the aggregation phenomenon individually for the first CAC.
as §1

BSA = molecular target: T4, BSA (Bos taurus, UniProt P02769); experiment: CD thermal unfolding (Tm) of BSA; type: physicochemical, bovine; details: 1.0 mg/ml BSA, 200 mM component aqueous solution
T4 construct: purchased Millipore Sigma-Aldrich
Text: The thermal stability assessed by far-UV CD is solely determined through the thermal decay of the alpha-helical structure.

[4] = max. conc. first capillary below 1st CAC (monomer)

T4 sequence (P02769 25-607): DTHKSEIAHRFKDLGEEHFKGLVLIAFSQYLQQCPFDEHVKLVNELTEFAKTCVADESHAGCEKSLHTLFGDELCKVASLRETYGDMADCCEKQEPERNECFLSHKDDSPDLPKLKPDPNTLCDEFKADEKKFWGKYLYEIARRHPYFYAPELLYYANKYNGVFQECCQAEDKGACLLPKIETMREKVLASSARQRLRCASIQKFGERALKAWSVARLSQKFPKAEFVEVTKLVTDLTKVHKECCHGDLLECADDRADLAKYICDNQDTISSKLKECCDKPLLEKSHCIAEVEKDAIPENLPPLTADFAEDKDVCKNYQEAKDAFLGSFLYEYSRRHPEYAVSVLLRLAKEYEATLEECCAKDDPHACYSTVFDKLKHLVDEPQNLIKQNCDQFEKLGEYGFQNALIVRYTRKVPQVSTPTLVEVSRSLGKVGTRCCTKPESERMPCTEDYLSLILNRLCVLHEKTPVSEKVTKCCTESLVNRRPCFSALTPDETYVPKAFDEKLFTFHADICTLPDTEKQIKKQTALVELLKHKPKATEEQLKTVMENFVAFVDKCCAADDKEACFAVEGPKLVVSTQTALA
T3 sequence (P02769 25-607): as above
T2 sequence (P01563 24-188): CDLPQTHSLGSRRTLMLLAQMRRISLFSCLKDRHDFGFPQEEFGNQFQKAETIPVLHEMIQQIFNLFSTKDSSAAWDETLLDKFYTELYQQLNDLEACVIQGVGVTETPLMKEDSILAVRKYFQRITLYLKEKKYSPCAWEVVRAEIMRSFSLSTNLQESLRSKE
T1 sequence (P01563 24-188): as above

| Compound | Distorted Alpha Helix (IFN-α2b [1]) | Distorted Beta Sheet (IFN-α2b [1]) | Regular Alpha Helix (IFN-α2b [1]) | Regular Beta Sheet (IFN-α2b [1]) | Turns (IFN-α2b [1]) | Unordered (IFN-α2b [1]) | Tm, Ellipticity 192 nm (IFN-α2b [2]) [°C] | 1st CAC [3] [mM] | 2nd CAC [3] [mM] | 3rd CAC [3] [mM] | Kd (FITC-BSA; [4]) | Tm, Ellipticity 208 nm (BSA) [°C] | also measured |
| --- | --- | --- | --- | --- | --- | --- | --- | --- | --- | --- | --- | --- | --- |
| CCn1cc[n+](C)c1.O=S(=O)([O-])C(F)(F)C(F)(F)C(F)(F)C(F)(F)F [1-ethyl-3-methylimidazolium perfluorobutane sulfonate] | 0.153 | 0.069 | 0.292 | 0.05 | 0.204 | 0.232 | 53.633 | 14.40 | 34.48 | 76.54 | no binding detected | – | 4th CAC ([3]; ITC): 106.09 mM; Kd (FITC-IFN-α2b; 0.41 μM IFN-α2b, max. conc. first capillary below 1st CAC (monomer)): no binding detected; Kd (FITC-IFN-α2b; 0.41 μM IFN-α2b, max. conc. first capillary in 2nd CAC range, 25 °C, read-out: Kd): 0.71 ± 0.37 mM; Kd (FITC-IFN-α2b; 0.41 μM IFN-α2b, max. conc. first capillary in 4th CAC range, 25 °C, read-out: Kd): 6.28 ± 1.09 mM; Kd (FITC-IFN-α2b; 2.7 μM IFN-α2b, max. conc. first capillary in 1st CAC range, 25 °C, read-out: Kd): 9.1 ± 6.38 mM; Kd (FITC-IFN-α2b; 2.7 μM IFN-α2b, max. conc. first capillary in 3rd CAC range, 25 °C, read-out: Kd): 29.9 ± 6.27 mM; Kd (FITC-BSA; max. conc. first capillary in 1st CAC range, read-out: Kd): 1.61 ± 0.39 mM; Kd (FITC-BSA; max. conc. first capillary in 2nd CAC range, read-out: Kd): 1.73 ± 0.42 mM; Kd (FITC-BSA; max. conc. first capillary in 3rd CAC range, read-out: Kd): 2.86 ± 1.46 mM; Kd (FITC-BSA; max. conc. first capillary in 4th CAC range): no binding detected |
| C[N+](C)(C)CCO.O=S(=O)([O-])C(F)(F)C(F)(F)C(F)(F)C(F)(F)F [[N1112(OH)][C4F9SO3], (2-hydroxyethyl)trimethylammonium perfluorobutane sulfonate] | 0.148 | 0.064 | 0.303 | 0.071 | 0.188 | 0.226 | 35.992 | 16.02 | 35.17 | 185.65 | no binding detected | 92.409 | Tm, Ellipticity 208 nm (IFN-α2b [2]): 61.234 °C; Tm, Ellipticity 222 nm (IFN-α2b [2]): 56.542 °C; Kd (FITC-BSA; max. conc. first capillary in 3rd CAC range): no binding detected |
| CCCCn1cc[n+](C)c1.O=S(=O)([O-])C(F)(F)F [[C4C1Im][CF3SO3], 1-butyl-3-methylimidazolium trifluoromethanesulfonate] | – | – | – | – | – | – | – | – | – | – | – | 77.089 | Tm, Ellipticity 192 nm (BSA): 75.050 °C; Tm, Ellipticity 222 nm (BSA): 74.833 °C; Kd (FITC-BSA; max. conc. first capillary 12.5 mM (monomer)): no binding detected; Kd (FITC-BSA; max. conc. first capillary 400 mM (monomer)): no binding detected |
